Experimental data from ChEMBL document CHEMBL1147669, “Synthesis of biphenyltrienes as probes for beta-amyloid plaques” (J Med Chem, 2006).

biological target: T1, Amyloid-beta precursor protein (Homo sapiens, UniProt P05067); assay: Displacement of [125I]2-(4'-dimethylaminophenyl)-6-iodoimidazo[1,2-a]pyridine from beta amyloid peptide in brain tissue at 50 uL; assay type: tissue-based
T1 sequence (P05067 whole entry): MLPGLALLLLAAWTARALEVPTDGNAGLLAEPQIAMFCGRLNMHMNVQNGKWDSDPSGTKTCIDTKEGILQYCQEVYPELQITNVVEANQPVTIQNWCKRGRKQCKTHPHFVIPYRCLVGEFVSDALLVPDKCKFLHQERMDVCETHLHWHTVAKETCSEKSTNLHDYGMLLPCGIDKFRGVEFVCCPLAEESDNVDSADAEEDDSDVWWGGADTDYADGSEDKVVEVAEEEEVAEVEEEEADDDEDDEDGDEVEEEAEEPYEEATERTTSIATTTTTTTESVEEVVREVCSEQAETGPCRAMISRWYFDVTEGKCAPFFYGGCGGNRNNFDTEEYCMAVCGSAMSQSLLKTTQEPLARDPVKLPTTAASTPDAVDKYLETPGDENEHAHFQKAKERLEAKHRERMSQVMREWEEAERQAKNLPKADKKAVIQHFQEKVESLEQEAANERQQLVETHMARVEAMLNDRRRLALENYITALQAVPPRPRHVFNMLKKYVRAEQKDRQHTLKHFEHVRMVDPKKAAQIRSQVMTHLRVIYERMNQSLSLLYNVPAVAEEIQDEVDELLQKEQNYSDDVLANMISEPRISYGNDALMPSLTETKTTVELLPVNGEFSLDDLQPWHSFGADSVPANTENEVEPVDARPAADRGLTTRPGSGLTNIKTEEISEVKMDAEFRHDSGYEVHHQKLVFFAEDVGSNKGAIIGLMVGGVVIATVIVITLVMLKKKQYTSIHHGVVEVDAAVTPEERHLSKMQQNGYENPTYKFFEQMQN

SMILES | Ki [µM]
Nc1ccc(/C=C/C=C/C=C/c2ccc(NCCF)cc2)cc1 | 0.012
O=[N+]([O-])c1ccc(/C=C/C=C/C=C/c2ccc([N+](=O)[O-])cc2)cc1 | 0.5
CC(=C(C#N)C#N)c1ccc2cc(N(C)CCF)ccc2c1 | 0.152
CNc1ccc(/C=C/C=C/C=C/c2ccc(NC)cc2)cc1 | 0.0075
COc1ccc(/C=C/c2ccc(/C=C/c3ccc(OC)c(C(=O)O)c3)c(I)c2)cc1C(=O)O | > 1
CN(C)c1ccc(/C=C/C=C/C=C/c2ccc(N(C)C)cc2)cc1 | 0.837

Other lines, results leading:

Ki [µM] | SMILES
> 4 | COc1ccc(/C=C/C=C/C=C/c2ccc(OC)cc2)cc1
0.009 | Oc1ccc(/C=C/C=C/C=C/c2ccc(O)cc2)cc1
0.009 | Nc1ccc(/C=C/C=C/C=C/c2ccc(N)cc2)cc1

biological target: T1, Amyloid-beta precursor protein; assay: Displacement of [125I](E,E)-1-iodo-2,5-bis-(3-hydroxycarbonyl-4-methoxy)styrylbenzene from beta amyloid peptide in brain tissue at 50 uL; assay type: tissue-based

SMILES | Ki [µM]
Nc1ccc(/C=C/C=C/C=C/c2ccc(NCCF)cc2)cc1 | 0.217
O=[N+]([O-])c1ccc(/C=C/C=C/C=C/c2ccc([N+](=O)[O-])cc2)cc1 | > 4
CC(=C(C#N)C#N)c1ccc2cc(N(C)CCF)ccc2c1 | > 8
CNc1ccc(/C=C/C=C/C=C/c2ccc(NC)cc2)cc1 | 0.122
COc1ccc(/C=C/c2ccc(/C=C/c3ccc(OC)c(C(=O)O)c3)c(I)c2)cc1C(=O)O | 0.0051
CN(C)c1ccc(/C=C/C=C/C=C/c2ccc(N(C)C)cc2)cc1 | > 7

More lines, now with the values ahead:

Ki [µM] | SMILES
> 8 | COc1ccc(/C=C/C=C/C=C/c2ccc(OC)cc2)cc1
0.15 | Oc1ccc(/C=C/C=C/C=C/c2ccc(O)cc2)cc1
0.375 | Nc1ccc(/C=C/C=C/C=C/c2ccc(N)cc2)cc1
